Reference: patent publication US7109317B1, “FK506-based regulation of biological events” (President and Fellows of Harvard College, priority 1998, dated 2006)

Legend:
calcineurin = assay: NFAT-SEAP reporter gene assay (calcineurin inhibition assay), PMA/ionomycin-stimulated; assay type: cell-based, human; conditions: dose-dependent suppression of PMA/ionomycin-induced activation of NFAT-SEAP reporter, transient transfection
Protocol: (§1) In particular, we transfected human TAg Jurkat T cells with a reporter construct, NFAT-SEAP, which consists of 12 copies of the NFAT response element fused upstream of the gene for secreted alkaline phosphatase (SEAP). Following transfection, the cells were exposed to phorbol myristate acetate (PMA) and ionomycin (IO), which together are able to activate NFAT-SEAP reporter activity. […] Specifically, ten million Jurkat cells per condition were transfected with 500 ng of NFAT-SEAP reporter construct by electroporation (40 ms pulse) and aliquoted at 0.3×10^6/well into a 96-well microtiter plate. […] Cells were incubated 36 hours in a tissue culture incubator, then heat-inactivated for 2 hours at 65° C. Following heating, 100 μL of cell supernatants were transferred to a replica plate containing 100 μL of assay buffer (120 μM 4-methylumbelliferyl phosphate in 2M diethanolamine bicarbonate, pH 10). Assays were incubated 8 hours before reading on a Fluoroskan plate reader.

mink lung cells = assay: Suppression of a rapamycin-dependent effect in mink lung cells; assay type: cell-based; conditions: unpublished observations
Excerpt: Other possibilities for the reduced activity of derivatives in this assay are 1) compound insolubility in tissue culture media, 2) inability of compound to penetrate the cell membrane, or 3) inability of compound to bind to FKBP. To rule out these other possibilities, we tested two of the derivatives for their ability to suppress a rapamycin-dependent effect in mink lung cells (Paul A Clemons and Brent Stockwell, unpublished observations).

[1] = system: endogenous calcineurin (NFAT-SEAP reporter, human TAg Jurkat T cells); assay: NFAT-SEAP reporter assay (calcineurin inhibition assay), PMA + ionomycin stimulated human TAg Jurkat T cells; assay type: cell-based; conditions: for inhibition of NFAT-SEAP activity: PMA/ionomycin-induced reporter activity
Excerpt: A similar strategy can be used to identify bump-hole pairs for the CAB domain.
Each of the residues in question is part of the CAB minimal binding domain structure. […] These mutations may be inserted randomly or in a directed fashion, as described above for FKBP.
as §1

mink lung cells (FKBP) = assay: rapamycin-dependent effect in mink lung cells, suppression by FK506 derivatives; assay type: cell-based
Excerpt: To rule out these other possibilities, we tested two of the derivatives for their ability to suppress a rapamycin-dependent effect in mink lung cells (Paul A Clemons and Brent Stockwell, unpublished observations).

[2] = system: fCAB, CnA (12–394) fused to CnB (3–170), human calcineurin A (SEQ ID NO: 33) and calcineurin B (SEQ ID NO: 35); assay: NFAT-SEAP reporter assay with overexpressed full length CAB (fCAB); assay type: cell-based; conditions: 500–5000 ng fCAB construct DNA, 500 ng NFAT-SEAP
Protocol: Primers containing restriction sites were prepared in order to amplify two different fragments of calcineurin A, corresponding the full-length CAB (fCAB) and the minimal CAB (mCAB). These PCR fragments were subcloned directionally into the polylinker to generate the following constructs: ATG-XhoI-CnA (12–394)-SalI-SpeI-TAA-EcoRI ATG-XhoI-CnA (340–394)-SalI-SpeI-TAA-EcoRI Primers containing restriction sites were prepared in order to amplify the fragment of calcineurin B corresponding to residues 3–170 of this protein. […] This fusion results in another (SalI/XhoI) fusion which cannot be cut by either enzyme. A similar strategy is possible to generate multimers of the CAB domain, greatly facilitating the production of these reagents. Since all of the restriction enzymes within the coding region are 6-base cutters, they preserve the reading frame for protein synthesis. The mature CAB should have the following amino acid sequence: NH2-Met-Leu-Glu-(CnA frag)-Val-Glu-(CnB frag)-Val-Asp-Thr-Ser-COOH • (SEQ ID NO 22) New mCAB-p65 constructs were verified by sequence analysis.
In particular, we transfected human TAg Jurkat T cells with a reporter construct, NFAT-SEAP, which consists of 12 copies of the NFAT response element fused upstream of the gene for secreted alkaline phosphatase (SEAP). […] Assays were incubated 8 hours before reading on a Fluoroskan plate reader. […]

[3] = system: full length CABs (residues 12–394 of human calcineurin A, SEQ ID NO: 33, fused to residue 2 or residue 3 of calcineurin B, SEQ ID NO: 35) fused to VP16 or …; assay: SEAP transcription activation assay, full length CABs fused to VP16 or GAL4; assay type: cell-based; conditions: FK506 titration, Jurkat T-cells
Excerpt: The summary of our data in this transcription assay is as follows. The full length CABS (residues 12–394 of calcineurin A fused to residue 2 or to residue 3 of Calcinuerin B) are functional when fused to VP16 or to GAL4. They have an EC50 of ˜1 nanoMolar.

[4] = system: 2 tandem minicabs (340–394 of CNA and 3–170 of CNB) fused to VP16, with Gal4 fused to 3 FKBPs; assay: SEAP transcription activation assay, 2 tandem minicabs fused to VP16; conditions: FK506, SEAP
Protocol: (§2) 10 million T-antigen transformed Jurkat T-cells growing in log phase at 37 degrees with 5% CO2 in RPMI medium supplemented with 10% FBS, Penicillin and Streptomycin, and Glutamate are centrifuged for 5 minutes at 1000×g. This pellet is washed with RPMI without phenol-red and re-pelleted by centrifugation at 1000×g for 5 minutes. 200 microliters of phenol-free RPMI are used to resuspend each 10 million cells. 200 microliters of these cells are then incubated for 10 minutes at room temperature with 1 microgram of the UAS-SEAP reporter, 1 microgram of the DNA binding domain containing construct, and 5 micrograms of the activation domain containing construct. Electroporation is performed at […], 129 Ohms on a BTX electroporator. The cells are allowed to recover at room temperature for another 10 minutes. They are then resuspended in 10 mLs of RPMI w/o phenol red supplemented with 10% FBS, penicillin, streptomycin, and Glutamate and returned to the 37 degree incubator with 5% CO2 for 24 hrs.
(§3) After recovery, the cells are pelleted by centrifugation at 1000×g for 5 minutes and resuspended in 5 mLs of RPMI w/o phenol red supplemented with 10% FBS, penicillin, streptomycin, and Glutamate. 100 microliters of this cell suspension is plated on a 96 well plate. […]

[5] = system: 340miniCAB-VE constructs (CNA residues 340–394 fused to CNBMG or CNBM, VP16), with FKBP3-GE; assay: SEAP assay, 340miniCAB-VE with FKBP3-GE; assay type: cell-based, human
Protocol: as §2
After recovery, the cells are pelleted by centrifugation at 1000×g for 5 minutes and resuspended in 5 mLs of RPMI w/o phenol red supplemented with 10% FBS, penicillin, streptomycin, and Glutamate. 100 microliters of this cell suspension is plated on a 96 well plate. Appropriate dilutions of the dimerizer from an ethanolic solution (2 micromolar to 0.2 nanomolar) are made in the same media that the cells were resuspended in such that the concentration of ethanol is less than 1%.

[6] = system: 350miniCABs (CNA residues 350–394 fused to CNBMG or CNBM, VP16), with FKBP3-GE; assay: SEAP assay, 350miniCAB-VE with FKBP3-GE; assay type: cell-based, human; conditions: FK506, with FKBP3-GE
Excerpt: Four such minimal CAB proteins were created by PCR and ligation. Two of the miniCABs contained CNA residues 340–394 fused to either CNBMG or CNBM(340miniCABs). The other two miniCABs contained CNA residues 350–394 fused to either CNBMG or CNBM(350miniCABs). Each of these miniCABs was also fused to the VP16 transactivation domain.
Consistent with the relative activity of CNBMG and CNBM, 340miniCABMG-VE was able to induce higher SEAP activity than 340miniCABM-VE.

[7] = system: (340miniCABMG)2-VE, two 340miniCAB domains in series fused to VP16, with FKBP3-GE; assay: SEAP assay, two 340miniCAB domains in series (VE) with FKBP3-GE; assay type: cell-based, human; conditions: FK506, with FKBP3-GE
Protocol: as §2, §3

[8] = system: (340miniCABMG)3-VE, three 340miniCABs in series fused to VP16, with FKBP3-GE; assay: SEAP assay, three 340miniCAB domains in series (VE) with FKBP3-GE; assay type: cell-based, human; conditions: FK506, with FKBP3-GE
Protocol: as §2, §3

[9] = system: full length CABMG-GE (CNA residues 12–394 fused to CNBMG, GAL4), with FKBP3-VE; assay: SEAP assay, full length CABMG-GE with FKBP3-VE
Protocol: as §2, §3

Structure (SMILES) | fold less immunosuppressive than FK506 (calcineurin) | ability to suppress the effects of rapamycin (mink lung cells) | inhibition of NFAT-SEAP activity [1] | immunosuppressive activity relative to FK506 (dose-dependent suppression of PMA/ionomycin-induced NFAT-SEAP activation) ([1]; fold less immunosuppressive than FK506, transient transfection) | suppression of rapamycin-dependent effect (mink lung cells (FKBP)) | inhibition of reporter gene activity at high level of fCAB overexpression [2] | EC50 [3] [nM] | total activation [4] [fold] | stimulation of SEAP activity ([5]; FK506-dependent, with FKBP3-GE) | EC50 ([5]; miniCABs, FK506, SEAP) [nM] | EC50 of the miniCABs compared with full length CABMG-VE ([5]; relative to full length CABMG-VE) | stimulation of SEAP activity [6] | EC50 [7] [nM] | EC50 [8] [nM] | enhancement of SEAP activity ([9]; FK506, with FKBP3-VE) [fold] | stimulation of SEAP activity in the absence of FK506 ([9]; full CAB-GE and CAB-VE, no FK506)
CO[C@H]1C[C@@H](C)C/C(C)=C/[C@@H](CC=Cc2ccccc2)C(=O)C[C@H](O)[C@@H](C)[C@@H](/C(C)=C/[C@@H]2CC[C@@H](O)[C@H](OC)C2)OC(=O)[C@@H]2CCCCN2C(=O)C(=O)[C@]2(O)O[C@H]1[C@@H](OC)C[C@H]2C [C40-phenyl-FK506] | at least 30 fold | able to suppress the effects of rapamycin | inability of C40-phenyl-FK506 to inhibit NFAT-SEAP activity | at least 30 fold | able to suppress the effects of rapamycin | – | – | – | – | – | – | – | – | – | – | –
C=CC[C@@H]1/C=C(\C)C[C@H](C)C[C@H](OC)[C@H]2O[C@@](O)(C(=O)C(=O)N3CCCC[C@H]3C(=O)O[C@H](/C(C)=C/[C@@H]3CC[C@@H](O)[C@H](OC)C3)[C@H](C)[C@@H](O)CC1=O)[C@H](C)C[C@@H]2OC [FK506] | – | – | antagonizes the effect of PMA+IO in a dose-dependent manner | – | – | a high level of fCAB overexpression overcame the ability of FK506 or its derivatives to inhibit reporter gene activity | ~1 | ~20 | able to stimulate SEAP activity | ~3 | an order of magnitude greater than for full length CABMG-VE | neither of the 350miniCABs were able to stimulate SEAP activity | ~1.3 | ~1.3 | 2.0 | do not stimulate activity in the absence of FK506
CO[C@H]1C[C@@H](C)C/C(C)=C/[C@@H](CC=Cc2ccc(Oc3ccccc3)cc2)C(=O)C[C@H](O)[C@@H](C)[C@@H](/C(C)=C/[C@@H]2CC[C@@H](O)[C@H](OC)C2)OC(=O)[C@@H]2CCCCN2C(=O)C(=O)[C@]2(O)O[C@H]1[C@@H](OC)C[C@H]2C [C40-p-phenoxyphenyl-FK506] | – | – | – | – | able to suppress the effects of rapamycin | – | – | – | – | – | – | – | – | – | – | –
